Measured values as given in PMC6112376, “Comprehensive Analyses and Prioritization of Tox21 10K Chemicals Affecting Mitochondrial Function by in-Depth Mechanistic Studies” (Environmental Health Perspectives, 2018).
Where two headings read alike, the source gives them in different places.

Legend:
HepG2 cells [1] = conditions: cited from earlier work; for IC50: read-out: MMP assays IC50 (µM) qHTS-HepG2
rat primary hepatocytes [2] = test: MMP assay in rat primary hepatocytes; conditions: for IC50: Rattus norvegicus, Hepatocyte, read-out: MMP assays IC50 (µM) Rat Hepatocytes
HepG2 cells [3] = test: cells; conditions: Homo sapiens; for Emax: HepG2, read-out: MMP assays efficacy (%) HepG2; for IC50: HepG2, read-out: MMP assays IC50 (µM) HepG2
rat primary hepatocytes [4] = system: rat primary hepatocytes

SMILES | MMP assays efficacy (%) qHTS-HepG2 (HepG2 cells [1]) [%] | IC50 (HepG2 cells [1]) [µM] | MMP assays IC50 (µM) Rat Hepatocytes (rat primary hepatocytes [2]) | Emax (HepG2 cells [3]) [%] | MMP assays efficacy (%) Rat Hepatocytes (rat primary hepatocytes [4]) | IC50 (rat primary hepatocytes [2]) [µM] | IC50 (HepG2 cells [3]) [µM]
CCCCCc1ccc(C)cc1O [Amylmetacresol] | -109±16 | 11.2 ± 0.65 | inactive | 115 | inactive | – | –
O=c1cc(-c2ccc(O)cc2)oc2cc(O)cc(O)c12 [Apigenin] | -98±2 | 1.61 | – | 88 | -66±35% | 28.9 ± 9.26 | 3.55
O=C(Nc1cccc(Cl)c1)OCC#CCCl [Barban] | -116±9 | 22.5 ± 4.1 | – | 87 | -68±37% | 36 ± 7.53 | 25.1
COC(=O)[C@]12CCC(C)(C)C[C@H]1[C@H]1C(=O)C=C3[C@@]4(C)C=C(C#N)C(=O)C(C)(C)[C@@H]4CC[C@@]3(C)[C@]1(C)CC2 [Bardoxolone methyl] | -114±5 | 5.11 ± 1.27 | – | 122 | -90±57% | 17.4 ± 2 | 17.3
CCc1oc2ccccc2c1C(=O)c1cc(Br)c(O)c(Br)c1 [Benzbromarone] | -138±3 | 7.22 ± 1.24 | – | 107 | -82±50% | 4.91 ± 1.79 | 13.8
Nc1ccc(-c2ccc(N)cc2)cc1 [Benzidine] | -59±14 | 24.3 ± 4.5 | – | 79 | -69±64% | 2.51 ± 3.54 | 15.8
COc1ccc2cc3[n+](cc2c1OC)CCc1cc2c(cc1-3)OCO2 [Berberine chloride] | -95±8 | 2.03 ± 1.29 | – | 92 | -101±32% | 6.03 ± 3.78 | 3.46
CC(=O)Oc1ccc(C(c2ccc(OC(C)=O)cc2)c2ccccn2)cc1 [Bisacodyl] | -67±5 | 14.8 ± 3.63 | – | 95 | -73±12% | 18.4 ± 13 | 7.74
CCC(C)(c1ccc(O)cc1)c1ccc(O)cc1 [Bisphenol B] | -117±22 | 10.7 ± 2.48 | – | 122 | -79±17% | 21.8 ± 8.6 | 10
Oc1ccc(C2(c3ccc(O)cc3)CCCCC2)cc1 [Bisphenol Z] | -101±12 | 22.2 ± 5.51 | – | 113 | -34±12% | 14.7 ± 15.1 | 19.9
Oc1c(Cl)cc(Cl)cc1Sc1cc(Cl)cc(Cl)c1O [Bithionol] | -97±9 | 0.66 ± 0.52 | – | 92 | -109±25% | 2.47 ± 1.39 | 0.97
ClC1=C(Cl)C2(Cl)C(CBr)CC1(Cl)C2(Cl)Cl (stereo not shown) [Bromociclen] | -87±13 | 33.2 ± 3.47 | inactive | 47 | inactive | – | 15.5
CC(C)C[C@H]1C(=O)N2CCC[C@H]2[C@]2(O)O[C@](NC(=O)[C@@H]3C=C4c5cccc6[nH]c(Br)c(c56)C[C@H]4N(C)C3)(C(C)C)C(=O)N12 [Bromocriptine] | -112±8 | 11.4 ± 1.58 | – | 121 | -68±7% | 13.2 ± 10.8 | 21.8
O=[N+]([O-])c1ccc(O/N=C/c2cc(Br)c(O)c(Br)c2)c([N+](=O)[O-])c1 [Bromofenoxim] | -108±7 | 1.08 ± 0.25 | – | 100 | -114±9% | 2.18 ± 0.86 | 3.98
COP(=S)(OC)Oc1cc(Cl)c(Br)cc1Cl [Bromofos] | -105±8 | 7.7 ± 1.63 | – | 95 | -111±7% | 22.7 ± 10.4 | 8.91
CCCCCCCC(=O)Oc1c(Br)cc(C#N)cc1Br [Bromoxynil octanoate] | -109±13 | 15.3 ± 5.08 | – | 125 | -38±2% | 28.6 ± 22.7 | 31.6
CCC/C=C/C=C/C(=O)O[C@H]1/C(=C/C(=O)OC)C[C@H]2C[C@H]([C@@H](C)O)OC(=O)C[C@H](O)C[C@@H]3C[C@H](OC(C)=O)C(C)(C)[C@](O)(C[C@@H]4C/C(=C/C(=O)OC)C[C@H](/C=C/C(C)(C)[C@]1(O)O2)O4)O3 [Bryostatin 1] | -105±21 | 0.01 ± 0.01 | – | 92 | -46±21% | 0.79 ± 1.07 | 0.001

SMILES | MMP assays efficacy (%) qHTS-HepG2 (HepG2 cells [1]) [%] | IC50 (HepG2 cells [1]) [µM] | MMP assays IC50 (µM) Rat Hepatocytes (rat primary hepatocytes [2]) | Emax (HepG2 cells [3]) [%] | MMP assays efficacy (%) Rat Hepatocytes (rat primary hepatocytes [4]) | IC50 (rat primary hepatocytes [2]) [µM] | IC50 (HepG2 cells [3]) [µM]
CCCCOC(=O)c1ccc(O)cc1 [Butylparaben] | -109±15 | 19 | inactive | 124 | inactive | – | 35.5
Oc1c(Cl)cc(Cl)c2cccnc12 [CHLOROXINE] | -75±22 | 10.6 ± 1.22 | inactive | 99 | inactive | – | 9.75
C=C1/C(=C\C=C2/CCC[C@]3(C)[C@@H]([C@H](C)CCCC(C)(C)O)CC[C@@H]23)C[C@@H](O)C[C@@H]1O [Calcitriol] | -94±17 | 14.1 ± 4.15 | – | 75 | -37±8% | 22.4 ± 7.17 | 15.5
CCOc1nc2cccc(C(=O)OC(C)OC(=O)OC3CCCCC3)c2n1Cc1ccc(-c2ccccc2-c2nnn[nH]2)cc1 (stereo not shown) [Candesartan cilexetil] | -124±13 | 15.9 ± 4.62 | inactive | 101 | inactive | – | 11.2
CCCCCc1cc(O)c2c(c1)OC(C)(C)c1ccc(C)cc1-2 [Cannabinol] | -124±7 | 1.68 | – | 103 | -98±2% | 21.8 | 1.09
C[C@@]12C(=O)OC(=O)[C@]1(C)[C@H]1CC[C@@H]2O1 [Cantharidin] | -67±9 | 0.15 ± 0.08 | – | 98 | -91±63% | 0.45 ± 0.3 | 0.12
N#CC(C#N)=NNc1cccc(Cl)c1 [Carbonyl cyanide chlorophenylhydrazone] | – | 0.15 ± 0.04 | inactive | 96 | inactive | – | 0.25
CC(=O)[C@]1(O)Cc2c(O)c3c(c(O)c2[C@@H](O[C@H]2C[C@H](N)[C@H](O)[C@H](C)O2)C1)C(=O)c1c(O)cccc1C3=O [Carminomycin] | -91±17 | 1.25 ± 0.73 | inactive | 68 | inactive | – | 21.8
O=S(=O)(Oc1ccc(Cl)cc1)c1ccc(Cl)cc1 [Chlorfenson] | -94±17 | 38.8 ± 25.4 | – | 88 | -62±24% | 23.7 ± 17.2 | 44.7
O=C(NC(=O)c1c(F)cccc1F)Nc1cc(Cl)c(Oc2ncc(C(F)(F)F)cc2Cl)c(Cl)c1 [Chlorfluazuron] | -114±19 | 8.93 ± 4.57 | – | 98 | -79±42% | 29.3 ± 1.99 | 12.6
CC(C)OC(=O)C(O)(c1ccc(Cl)cc1)c1ccc(Cl)cc1 [Chloropropylate] | -105±14 | 26.3 ± 3.64 | – | 102 | -66±32% | 43.8 ± 10.9 | 44.7
Cc1ccc2c(c1N)C(=O)c1ccccc1C2=O [Compound 1-Amino-2-methylanthraquinone] | -82±1 | 0.64 ± 0.08 | – | 92 | -85±28% | 5.28 ± 3.3 | 2.51
Oc1ccc2ccc3cccc4ccc1c2c34 [Compound 1-Hydroxypyrene] | -110±22 | 4.67 ± 1.95 | – | 99 | -49±25% | 33.5 ± 2.73 | 7.08
Cc1ccc2ccc3cccc4ccc1c2c34 [Compound 1-Methylpyrene] | -112±32 | 43.2 ± 4.99 | – | 112 | -57±10% | 32.2 ± 7.36 | 39.8
Oc1cccc2ccccc12 [Compound 1-Naphthol] | -104±5 | 31 ± 5.96 | inactive | 107 | inactive | – | 31.6
O=[N+]([O-])c1ccc2ccc3cccc4ccc1c2c34 [Compound 1-Nitropyrene] | -99±6 | 2.01 ± 2.06 | – | 68 | -60±24% | 16.9 ± 4.77 | 6.31
CC(=O)Nc1ccc2c(c1)Cc1ccccc1-2 [Compound 2-Acetylaminofluorene] | -63±5 | 36.3 ± 10.5 | inactive | 46 | inactive | – | 31.6
